The source made the active and inactive calls.
How the values were obtained:
Cytochrome P450 3A4 = Cytochrome P450 3A4 (Homo sapiens, UniProt P08684); conditions: Potency;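 note: confirmatory qHTS run detecting inhibitors and substrates of CYP3A4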
[1] = molecular target: 5-hydroxytryptamine receptor 5A (Homo sapiens, UniProt P47898); test: Counterscreen for agonists of OPRM1-OPRD1 heterodimerization: luminescence-based cell-based high throughput dose response assay to identify agonists of 5-hydroxytryptamine (serotonin) 5A receptor (HTR5A). [Related pubchem assays (depositor defined):AID504326, AID504355, AID504692, AID504904, AID504905]; assay type: functional
Sequence of 5-hydroxytryptamine receptor 5A (P47898 whole entry): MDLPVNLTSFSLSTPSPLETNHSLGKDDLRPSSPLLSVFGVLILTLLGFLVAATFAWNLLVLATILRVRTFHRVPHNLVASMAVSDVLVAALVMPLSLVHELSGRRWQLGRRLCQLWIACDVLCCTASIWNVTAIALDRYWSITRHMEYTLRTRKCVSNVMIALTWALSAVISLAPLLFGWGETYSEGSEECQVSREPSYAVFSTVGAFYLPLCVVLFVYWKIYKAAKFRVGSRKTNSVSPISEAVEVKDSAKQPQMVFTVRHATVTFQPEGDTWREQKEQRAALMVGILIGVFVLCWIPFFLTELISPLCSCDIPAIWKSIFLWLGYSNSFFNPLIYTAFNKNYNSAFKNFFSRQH

Mu-type opioid receptor = Mu-type opioid receptor (Homo sapiens, UniProt P35372); test: (§1) Counterscreen for agonists of heterodimerization of the mu 1 (OPRM1) and delta 1 (OPRD1) opioid receptors: Luminescence-based cell-based high throughput dose response assay to identify agonists of OPRM1 homodimerization.; assay type: functional
[2] = molecular target: Delta-type opioid receptor (Homo sapiens, UniProt P41143); test: as §1, with “of OPRD1” for “of OPRM1”, “homodimerization. [Related pubchem assays (depositor defined):AID504326, AID504355, AID504692, AID504904, AID504905]” for “homodimerization.”; assay type: functional
[3] = molecular target: DNA dC->dU-editing enzyme APOBEC-3A (Homo sapiens, UniProt P31941); test: Dose Response confirmation of small molecule APOBEC3A DNA Deaminase Inhibitors via a fluorescence-based single-stranded DNA deaminase assay. [Related pubchem assays (depositor defined):AID493011, AID493024]; assay type: functional
Sequence of DNA dC->dU-editing enzyme APOBEC-3A (P31941 whole entry): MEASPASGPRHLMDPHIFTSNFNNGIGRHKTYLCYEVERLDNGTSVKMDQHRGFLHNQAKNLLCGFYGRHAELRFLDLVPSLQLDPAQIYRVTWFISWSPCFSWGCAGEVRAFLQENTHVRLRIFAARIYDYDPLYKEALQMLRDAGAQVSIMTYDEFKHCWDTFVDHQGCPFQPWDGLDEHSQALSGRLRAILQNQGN

[4] = molecular target: T1, Heat shock factor protein 1 (Mus musculus, UniProt P38532); test: HSF1 potentiators in luciferase reporter cells, confirmation, cell-based, NIH3T3, luminescence, dose retest (AID 435004); assay type: functional;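 note: stress induced by proteasome inhibitor MG132 added 30 min after compound; luciferase reporter driven by HSF1 response element in NIH3T3 cells; actives raise luminescence as potentiators of the MG132 stress response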
T1 sequence (P38532 whole entry): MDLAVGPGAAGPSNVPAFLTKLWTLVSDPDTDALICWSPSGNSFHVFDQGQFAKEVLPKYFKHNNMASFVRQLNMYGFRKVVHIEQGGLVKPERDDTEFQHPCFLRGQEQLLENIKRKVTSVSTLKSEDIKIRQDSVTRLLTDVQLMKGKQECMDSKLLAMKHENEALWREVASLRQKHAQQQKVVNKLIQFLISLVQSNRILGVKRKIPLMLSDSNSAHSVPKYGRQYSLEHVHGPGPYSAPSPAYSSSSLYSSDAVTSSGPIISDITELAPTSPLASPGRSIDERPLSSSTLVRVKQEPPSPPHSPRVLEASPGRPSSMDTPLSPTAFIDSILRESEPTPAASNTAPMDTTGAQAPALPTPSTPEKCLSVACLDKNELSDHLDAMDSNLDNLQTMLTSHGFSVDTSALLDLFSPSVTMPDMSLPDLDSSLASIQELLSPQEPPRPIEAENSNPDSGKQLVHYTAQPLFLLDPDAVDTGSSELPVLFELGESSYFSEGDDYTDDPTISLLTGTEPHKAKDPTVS

[5] = molecular target: DNA dC->dU-editing enzyme APOBEC-3G (Homo sapiens, UniProt Q9HC16); assay type: functional;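 note: Dose-response counterscreen measuring inhibition of APOBEC3G DNA deaminase activity, run while confirming APOBEC3A inhibitors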
Sequence of DNA dC->dU-editing enzyme APOBEC-3G (Q9HC16 whole entry): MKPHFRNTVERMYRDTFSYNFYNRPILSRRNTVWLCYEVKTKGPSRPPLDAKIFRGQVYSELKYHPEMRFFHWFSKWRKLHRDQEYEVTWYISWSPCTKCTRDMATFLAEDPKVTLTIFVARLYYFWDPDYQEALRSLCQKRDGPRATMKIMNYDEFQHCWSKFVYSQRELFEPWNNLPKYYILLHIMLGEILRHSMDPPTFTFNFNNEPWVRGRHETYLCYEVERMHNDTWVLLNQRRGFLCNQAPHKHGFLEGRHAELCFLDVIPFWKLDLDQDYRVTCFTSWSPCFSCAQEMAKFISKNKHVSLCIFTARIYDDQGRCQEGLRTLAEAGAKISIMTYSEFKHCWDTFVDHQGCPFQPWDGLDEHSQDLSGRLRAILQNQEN

[6] = molecular target: T2, Voltage-gated N-type calcium channel alpha-1B subunit/Amyloid beta A4 precursor protein-binding family A member 1 (Homo sapiens, UniProt Q00975+Q02410); assay type: protein assay
T2 sequence (Q00975 whole entry): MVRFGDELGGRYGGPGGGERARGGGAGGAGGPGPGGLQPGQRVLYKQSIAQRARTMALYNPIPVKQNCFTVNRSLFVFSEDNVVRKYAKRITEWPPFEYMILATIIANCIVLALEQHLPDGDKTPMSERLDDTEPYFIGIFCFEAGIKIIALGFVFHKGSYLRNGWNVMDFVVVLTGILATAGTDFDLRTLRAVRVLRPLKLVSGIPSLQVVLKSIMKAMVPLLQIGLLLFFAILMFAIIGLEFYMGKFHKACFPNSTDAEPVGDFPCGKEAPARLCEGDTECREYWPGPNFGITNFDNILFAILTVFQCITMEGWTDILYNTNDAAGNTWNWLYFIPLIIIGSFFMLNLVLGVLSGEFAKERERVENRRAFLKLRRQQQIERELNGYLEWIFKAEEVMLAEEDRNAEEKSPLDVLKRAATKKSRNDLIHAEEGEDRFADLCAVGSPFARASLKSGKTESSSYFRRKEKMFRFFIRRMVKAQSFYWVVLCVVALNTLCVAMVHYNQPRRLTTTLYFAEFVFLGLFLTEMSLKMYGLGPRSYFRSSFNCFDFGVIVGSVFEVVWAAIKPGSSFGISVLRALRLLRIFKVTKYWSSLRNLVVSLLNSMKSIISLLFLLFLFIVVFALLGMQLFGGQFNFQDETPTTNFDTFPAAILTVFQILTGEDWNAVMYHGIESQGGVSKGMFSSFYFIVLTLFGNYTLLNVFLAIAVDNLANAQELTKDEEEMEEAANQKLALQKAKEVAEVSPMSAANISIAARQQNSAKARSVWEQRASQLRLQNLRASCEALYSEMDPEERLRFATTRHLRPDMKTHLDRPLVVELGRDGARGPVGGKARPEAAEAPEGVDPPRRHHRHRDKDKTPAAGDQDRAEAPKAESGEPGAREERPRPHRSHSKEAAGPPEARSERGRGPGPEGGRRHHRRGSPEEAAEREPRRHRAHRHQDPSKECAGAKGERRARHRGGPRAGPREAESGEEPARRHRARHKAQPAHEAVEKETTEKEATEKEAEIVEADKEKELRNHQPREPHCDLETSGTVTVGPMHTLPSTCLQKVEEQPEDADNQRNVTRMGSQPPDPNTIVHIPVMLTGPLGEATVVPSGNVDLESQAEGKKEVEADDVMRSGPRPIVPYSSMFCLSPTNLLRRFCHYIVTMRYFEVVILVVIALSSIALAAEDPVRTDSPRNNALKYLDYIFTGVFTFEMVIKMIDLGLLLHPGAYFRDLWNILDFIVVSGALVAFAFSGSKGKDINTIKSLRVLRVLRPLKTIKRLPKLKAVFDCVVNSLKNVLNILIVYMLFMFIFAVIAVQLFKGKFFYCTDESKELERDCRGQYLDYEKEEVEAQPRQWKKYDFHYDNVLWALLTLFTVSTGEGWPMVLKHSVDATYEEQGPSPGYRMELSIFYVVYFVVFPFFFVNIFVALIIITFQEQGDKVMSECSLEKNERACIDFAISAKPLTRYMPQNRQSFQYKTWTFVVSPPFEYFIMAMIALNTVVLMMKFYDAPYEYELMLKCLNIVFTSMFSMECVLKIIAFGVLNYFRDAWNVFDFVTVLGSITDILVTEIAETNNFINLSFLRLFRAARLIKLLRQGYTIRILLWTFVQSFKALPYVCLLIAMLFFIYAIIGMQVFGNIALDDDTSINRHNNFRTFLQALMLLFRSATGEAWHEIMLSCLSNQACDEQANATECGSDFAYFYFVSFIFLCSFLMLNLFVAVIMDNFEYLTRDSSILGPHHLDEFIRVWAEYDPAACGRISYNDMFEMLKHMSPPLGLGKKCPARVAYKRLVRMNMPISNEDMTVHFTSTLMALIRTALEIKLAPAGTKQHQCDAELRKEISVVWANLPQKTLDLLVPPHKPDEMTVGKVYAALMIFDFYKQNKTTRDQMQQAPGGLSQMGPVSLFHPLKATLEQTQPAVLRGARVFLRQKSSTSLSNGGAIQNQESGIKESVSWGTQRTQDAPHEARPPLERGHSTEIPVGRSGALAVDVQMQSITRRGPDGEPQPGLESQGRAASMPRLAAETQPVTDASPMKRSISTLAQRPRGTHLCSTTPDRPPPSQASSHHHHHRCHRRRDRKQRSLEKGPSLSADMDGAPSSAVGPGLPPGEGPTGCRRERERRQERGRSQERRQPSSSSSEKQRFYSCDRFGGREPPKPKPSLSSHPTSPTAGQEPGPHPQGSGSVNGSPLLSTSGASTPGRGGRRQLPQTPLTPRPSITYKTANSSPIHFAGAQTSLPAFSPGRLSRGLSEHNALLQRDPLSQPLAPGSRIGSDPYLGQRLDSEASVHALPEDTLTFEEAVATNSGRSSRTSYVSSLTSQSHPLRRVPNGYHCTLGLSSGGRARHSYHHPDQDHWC
T2 sequence (Q02410 whole entry): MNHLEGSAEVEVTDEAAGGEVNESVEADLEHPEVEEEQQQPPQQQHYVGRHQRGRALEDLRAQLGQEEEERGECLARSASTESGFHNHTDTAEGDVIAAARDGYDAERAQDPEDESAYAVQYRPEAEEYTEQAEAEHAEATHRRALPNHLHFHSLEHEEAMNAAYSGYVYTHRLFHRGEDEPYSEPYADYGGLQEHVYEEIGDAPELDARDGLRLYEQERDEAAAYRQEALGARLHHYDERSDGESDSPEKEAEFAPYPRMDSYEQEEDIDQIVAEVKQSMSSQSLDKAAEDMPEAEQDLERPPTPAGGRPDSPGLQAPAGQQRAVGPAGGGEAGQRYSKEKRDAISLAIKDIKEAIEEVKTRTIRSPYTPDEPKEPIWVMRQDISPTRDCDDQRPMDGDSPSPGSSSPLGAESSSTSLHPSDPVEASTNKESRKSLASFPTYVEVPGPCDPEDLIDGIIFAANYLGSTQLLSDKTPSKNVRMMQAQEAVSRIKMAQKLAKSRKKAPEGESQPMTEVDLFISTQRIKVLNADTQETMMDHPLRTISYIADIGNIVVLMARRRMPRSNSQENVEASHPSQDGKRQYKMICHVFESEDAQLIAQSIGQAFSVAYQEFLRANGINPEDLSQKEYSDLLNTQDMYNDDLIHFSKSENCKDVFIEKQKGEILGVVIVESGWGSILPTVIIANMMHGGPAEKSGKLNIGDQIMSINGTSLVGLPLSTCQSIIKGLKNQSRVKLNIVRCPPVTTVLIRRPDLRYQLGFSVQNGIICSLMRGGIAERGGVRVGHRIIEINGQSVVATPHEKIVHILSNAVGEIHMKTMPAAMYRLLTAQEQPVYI

[7] = molecular target: T2, Voltage-gated N-type calcium channel alpha-1B subunit/Amyloid beta A4 precursor protein-binding family A member 1; assay type: protein assay; remark: listed apart in the source
[8] = molecular target: Nucleotide-binding oligomerization domain-containing protein 2 (Homo sapiens, UniProt Q9HC29); test: NOD2 signaling inhibitors, cell-based, luminescence, uHTS, HEK293 (AID 1566); assay type: functional
[9] = molecular target: Eukaryotic translation initiation factor 4E (Mus musculus, UniProt P63073); test: eIF4E–eIF4G protein interaction inhibitors, dose response, biochemical, TR-FRET (AID 855); assay type: functional;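 note: potency for disrupting eIF4E binding to eIF4GI seen as loss of FRET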
[10] = molecular target: Glyceraldehyde-3-phosphate dehydrogenase (Homo sapiens, UniProt P04406)
Sequence of Glyceraldehyde-3-phosphate dehydrogenase (P04406 whole entry): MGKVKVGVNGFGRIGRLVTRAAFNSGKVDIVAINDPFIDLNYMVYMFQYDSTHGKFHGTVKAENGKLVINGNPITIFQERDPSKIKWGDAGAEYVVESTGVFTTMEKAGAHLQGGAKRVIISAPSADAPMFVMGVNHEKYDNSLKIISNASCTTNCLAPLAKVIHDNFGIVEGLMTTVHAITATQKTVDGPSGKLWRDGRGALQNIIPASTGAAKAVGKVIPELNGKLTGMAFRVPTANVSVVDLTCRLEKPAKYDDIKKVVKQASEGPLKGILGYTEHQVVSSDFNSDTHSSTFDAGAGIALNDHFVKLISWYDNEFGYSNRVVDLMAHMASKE

HEK293 [11] = test: cells; assay type: functional, cell-based; conditions: Homo sapiens
HEK293 [12] = test: cells; assay type: functional, cell-based; conditions: Homo sapiens; remark: listed apart in the source
HEK293 [13] = test: cells; assay type: functional, cell-based; conditions: Homo sapiens; remark: listed apart in the source
HEK293 [14] = test: NOD1 signaling inhibitors, primary screen, cell-based, luminescence, uHTS (AID 1578); assay type: functional; conditions: Homo sapiens
HEK293 [15] = test: NOD2 signaling inhibitors in MDP-stimulated cells, cell-based, uHTS, luminescence (AID 2001); assay type: functional; conditions: Homo sapiens
[16] = molecular target: T3, Replicative DNA helicase DnaB (Mycobacterium tuberculosis, UniProt P9WMR3); test: DnaB intein splicing inhibitors, dose response, biochemical, cell-free fluorescence (AID 449749); assay type: functional
T3 sequence (P9WMR3 whole entry): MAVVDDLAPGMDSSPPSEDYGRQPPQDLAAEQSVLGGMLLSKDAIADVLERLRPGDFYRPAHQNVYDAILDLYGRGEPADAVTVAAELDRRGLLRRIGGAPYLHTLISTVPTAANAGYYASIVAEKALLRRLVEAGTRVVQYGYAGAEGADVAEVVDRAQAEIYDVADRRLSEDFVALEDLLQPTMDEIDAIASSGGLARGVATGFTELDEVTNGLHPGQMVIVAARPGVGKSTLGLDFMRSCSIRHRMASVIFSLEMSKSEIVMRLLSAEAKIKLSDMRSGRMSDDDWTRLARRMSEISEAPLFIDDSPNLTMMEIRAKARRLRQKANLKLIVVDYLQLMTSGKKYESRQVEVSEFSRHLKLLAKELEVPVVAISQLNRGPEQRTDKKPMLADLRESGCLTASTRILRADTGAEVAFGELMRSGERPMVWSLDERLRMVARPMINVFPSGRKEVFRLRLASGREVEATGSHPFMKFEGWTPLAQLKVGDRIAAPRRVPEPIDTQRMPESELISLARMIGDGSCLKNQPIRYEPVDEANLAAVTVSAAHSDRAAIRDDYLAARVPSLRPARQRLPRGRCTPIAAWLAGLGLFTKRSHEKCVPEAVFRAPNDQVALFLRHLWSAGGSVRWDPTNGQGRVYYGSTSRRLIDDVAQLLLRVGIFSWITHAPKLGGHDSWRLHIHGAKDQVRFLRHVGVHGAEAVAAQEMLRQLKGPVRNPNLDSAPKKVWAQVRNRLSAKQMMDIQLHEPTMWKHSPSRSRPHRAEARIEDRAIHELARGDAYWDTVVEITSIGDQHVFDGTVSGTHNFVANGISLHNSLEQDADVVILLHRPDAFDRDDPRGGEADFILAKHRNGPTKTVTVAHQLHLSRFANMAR

[17] = molecular target: T4, Short transient receptor potential channel 4 (Mus musculus, UniProt Q9QUQ5); test: mouse TRPC4 channel inhibitors, dose response, cell-based, HEK293 TRPC4/mu-opioid, Fluo-4 calcium (AID 434942); assay type: functional;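 note: potency of inhibitors blocking the TRPC4 calcium response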
T4 sequence (Q9QUQ5 whole entry): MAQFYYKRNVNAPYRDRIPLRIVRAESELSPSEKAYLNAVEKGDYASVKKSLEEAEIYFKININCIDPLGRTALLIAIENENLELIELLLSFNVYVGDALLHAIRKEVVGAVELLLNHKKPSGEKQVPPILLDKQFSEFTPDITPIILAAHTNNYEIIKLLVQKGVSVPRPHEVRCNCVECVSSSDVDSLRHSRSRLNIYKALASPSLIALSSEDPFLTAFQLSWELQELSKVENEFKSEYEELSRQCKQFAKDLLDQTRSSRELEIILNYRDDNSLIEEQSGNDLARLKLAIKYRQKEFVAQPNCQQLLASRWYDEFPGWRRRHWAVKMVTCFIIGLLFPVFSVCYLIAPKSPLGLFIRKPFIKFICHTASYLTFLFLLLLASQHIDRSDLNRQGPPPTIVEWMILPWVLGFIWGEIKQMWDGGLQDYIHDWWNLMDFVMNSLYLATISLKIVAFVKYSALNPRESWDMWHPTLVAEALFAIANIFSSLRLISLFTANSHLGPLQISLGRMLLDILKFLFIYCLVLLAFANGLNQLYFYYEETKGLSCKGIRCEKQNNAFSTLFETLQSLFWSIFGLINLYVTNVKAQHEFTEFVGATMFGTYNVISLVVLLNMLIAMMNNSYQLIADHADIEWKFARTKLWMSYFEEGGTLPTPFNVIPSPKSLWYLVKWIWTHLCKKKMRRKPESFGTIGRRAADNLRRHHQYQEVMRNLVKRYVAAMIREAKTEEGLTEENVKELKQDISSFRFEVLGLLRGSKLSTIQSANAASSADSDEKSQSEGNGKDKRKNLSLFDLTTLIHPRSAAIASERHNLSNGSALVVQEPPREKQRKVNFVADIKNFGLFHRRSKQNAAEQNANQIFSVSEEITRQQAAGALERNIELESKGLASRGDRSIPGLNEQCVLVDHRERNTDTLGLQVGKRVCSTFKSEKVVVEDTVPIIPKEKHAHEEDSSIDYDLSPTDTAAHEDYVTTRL

Streptococcus = test: Group A Streptococcus viability loss, dose response, counter-screen for streptokinase expression inhibitor project, luminescence, BacTiterGlo (AID 1915); assay type: functional, organism-based;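 note: potency for reduction of bacterial viability or growth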
[18] = system: Streptococcus sp. 'group A'; test: growth inhibition of control SK(-) GAS strain, dose response, counter-screen for streptokinase expression inhibitor project, luminescence, kanamycin, BacTiterGlo, confirmation (AID 1900); assay type: functional, organism-based
Protein RecA = molecular target: T5, Protein RecA (Mycobacterium tuberculosis, UniProt P9WHJ3); test: Fluorescence Cell-Free Homogeneous Dose Retest to Identify Inhibitors of RecA-Intein Splicing Activity. [Related pubchem assays (depositor defined):AID2097, AID2223, AID489010, AID492950]; assay type: functional
T5 sequence (P9WHJ3 whole entry): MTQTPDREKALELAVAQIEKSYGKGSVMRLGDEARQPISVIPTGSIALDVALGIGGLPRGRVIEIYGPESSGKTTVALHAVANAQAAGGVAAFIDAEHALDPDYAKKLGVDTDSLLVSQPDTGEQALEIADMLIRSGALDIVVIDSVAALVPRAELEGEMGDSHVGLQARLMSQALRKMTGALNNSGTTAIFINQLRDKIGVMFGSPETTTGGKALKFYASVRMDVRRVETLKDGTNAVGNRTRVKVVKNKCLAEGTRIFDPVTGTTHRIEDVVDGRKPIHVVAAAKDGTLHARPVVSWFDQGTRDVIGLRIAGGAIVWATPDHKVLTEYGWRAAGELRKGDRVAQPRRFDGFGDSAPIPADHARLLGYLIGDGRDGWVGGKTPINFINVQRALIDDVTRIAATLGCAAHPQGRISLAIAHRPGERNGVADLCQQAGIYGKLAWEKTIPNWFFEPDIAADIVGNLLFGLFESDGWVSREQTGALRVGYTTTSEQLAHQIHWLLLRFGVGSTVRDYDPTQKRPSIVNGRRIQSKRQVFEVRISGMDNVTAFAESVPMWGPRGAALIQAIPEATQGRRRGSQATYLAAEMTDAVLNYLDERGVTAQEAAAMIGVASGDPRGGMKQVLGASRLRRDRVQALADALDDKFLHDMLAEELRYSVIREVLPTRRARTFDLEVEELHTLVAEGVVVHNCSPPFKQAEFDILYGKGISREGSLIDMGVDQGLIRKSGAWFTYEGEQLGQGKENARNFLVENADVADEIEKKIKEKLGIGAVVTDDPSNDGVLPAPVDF

[19] = molecular target: Induced myeloid leukemia cell differentiation protein Mcl-1 (Homo sapiens, UniProt Q07820); assay type: functional
INS1 = test: beta cell apoptosis inhibitors, cytokine rescue, dose response, luminescence, retest (AID 449756); assay type: functional, cell-based; conditions: Rattus norvegicus;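 note: cell death triggered by IL-1 beta plus TNF-alpha plus IFN-gamma mixture; protective hits raise ATP signal compared with cytokine alone wells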

Sequence of Cytochrome P450 3A4 (P08684 whole entry): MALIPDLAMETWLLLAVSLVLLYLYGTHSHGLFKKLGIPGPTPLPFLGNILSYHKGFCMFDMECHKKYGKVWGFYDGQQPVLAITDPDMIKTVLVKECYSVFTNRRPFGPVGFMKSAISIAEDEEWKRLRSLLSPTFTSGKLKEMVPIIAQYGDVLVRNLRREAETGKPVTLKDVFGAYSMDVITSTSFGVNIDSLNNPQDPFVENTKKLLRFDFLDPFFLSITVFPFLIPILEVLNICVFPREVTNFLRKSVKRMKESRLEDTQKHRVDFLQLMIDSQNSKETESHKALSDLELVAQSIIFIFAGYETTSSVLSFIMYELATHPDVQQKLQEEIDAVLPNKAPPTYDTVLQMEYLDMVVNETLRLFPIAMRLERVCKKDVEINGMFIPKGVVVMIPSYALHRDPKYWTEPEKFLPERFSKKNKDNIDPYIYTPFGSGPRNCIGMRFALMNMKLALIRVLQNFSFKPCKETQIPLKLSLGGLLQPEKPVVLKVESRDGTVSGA

CCCn1c(C)nc2c(NCCCCN(CC)CC)nc(C)nc21
AC50 (Cytochrome P450 3A4): 20 µM (inconclusive)

CCC1=C2CC[C@H]3C(=O)N(CC(=O)OC)C(=O)[C@H]3[C@H]2[C@@]2(C)C(=O)N(CC3CC3)C(=O)N2C1=O
AC50 (Cytochrome P450 3A4): 7.94 µM (inconclusive)

O=C(CSc1ccc(Cl)cc1)Nc1ccc(-c2nc3ccccc3[nH]2)cc1
EC50 [1]: > 92.5 µM (inactive)
EC50 (Mu-type opioid receptor): > 92.5 µM (inactive)
EC50 [2]: > 92.5 µM (inactive)

Cc1ccc(C)c(NC(=O)C2CC(O)CN2C(=O)Oc2ccccc2)c1 (stereo unspecified)
IC50 [3]: 10 µM (active)
EC50 [4]: > 260 µM (inactive)
IC50 [5]: 10.4 µM (active)

Cc1cc(C)nc(NC(=S)Nc2ccc(Br)cc2Cl)c1
IC50 [6]: 5.57 µM (active)
IC50 [7]: > 50 µM (inactive)

FC(F)(F)c1cnc(NNC(=S)Nc2ccccc2Cl)c(Cl)c1
EC50 [8]: 11 µM (active)

O=C(O)c1cc(-c2ccco2)nn1-c1ccc(Cl)cc1
IC50 [9]: 50 µM (inactive)
IC50 [6]: 5.13 µM (active)
IC50 [7]: 22.1 µM (active)

C[C@H]1CN(C2=C(Cl)C(=O)N(c3ccnc(Cl)c3)C2=O)CCN1
IC50 [10]: > 50 µM (inconclusive)

Cc1ccc(N)cc1Cl
AC50 (Cytochrome P450 3A4): 12.6 µM (inconclusive)

CC(C)c1ccc(/C=C2\SC(=O)N(CC(=O)NC3CCS(=O)(=O)C3)C2=O)cc1 (stereo unspecified)
IC50 [6]: 12.4 µM (active)
IC50 [7]: > 50 µM (inactive)

CCN(CC)c1ccc(S(=O)(=O)N2CCOCC2)cc1NC(=O)CN1CCc2ccccc2C1
EC50 [8]: 11.5 µM (active)
IC50 (HEK293 [11]): > 20 µM (inactive)
IC50 (HEK293 [12]): 7.07 µM (active)
IC50 (HEK293 [13]): > 20 µM (inactive)
EC50 (HEK293 [14]): 10.5 µM (active)
IC50 (HEK293 [15]): 11.5 µM (inactive)

Cc1[nH]n(-c2ccccc2)c(=O)c1/C=C1/C(=O)NN(c2ccc(F)c(Cl)c2)C1=O
AC50 [16]: 4.54 µM (active)
EC50 [17]: 5.31 µM (active)
EC50 (Streptococcus): 7.24 µM (active)
EC50 [18]: 4.06 µM (active)
EC50 (Protein RecA): 12 µM (active)
IC50 [19]: 5.78 µM (active)

COc1ccc(N2CCN(C3=C(Cl)C(=O)N(c4cccc(OC)c4)C3=O)CC2)cc1
IC50 [10]: > 50 µM (inconclusive)

FC(F)(F)c1cnc(NN=C(S)Nc2ccccc2Cl)c(Cl)c1
AC50 (INS1): 7.04 µM (active)
IC50 (HEK293 [11]): > 20 µM (inactive)
IC50 (HEK293 [12]): 6.49 µM (active)
IC50 (HEK293 [13]): 15.1 µM (active)
EC50 (HEK293 [14]): 6.06 µM (active)
IC50 (HEK293 [15]): 6.98 µM (inactive)

C[C@H]1C[C@]2(O[C@@H]2C)C(=O)O[C@@H]2CCN(C)C/C=C(/COC(=O)[C@]1(C)O)C2=O
AC50 (Cytochrome P450 3A4): 25.1 µM (inconclusive)

O=C(NCCO)c1cc(-c2ccc(F)cc2F)n[nH]1
IC50 [10]: > 10 µM (inconclusive)

Cc1ccccc1/C=C/c1cc[n+](C)cc1
IC50 [3]: 2.33 µM (active)
IC50 [5]: 3.38 µM (active)
